Data from PubChem BioAssay (NCI).
“And” between values parts separate entries of the source, which are not always exact repeats. Equal entries are not always repeated.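 Cells were grown in 96-well plates and exposed to each compound for 48 hours at five concentrations; endpoints were interpolated linearly between bracketing concentrations, or set to the highest concentration if not reached. GI50 = concentration required for 50% inhibition of growth. TGI: total growth inhibition.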

Assays:
Assay in all cases: NCI anticancer screen, dose series, 48 h
[1] = tested on: CCRF-CEM leukemia
[2] = tested on: EKVX NSCLC
[3] = tested on: HCT-15 colon
[4] = tested on: HL-60(TB) leukemia
[5] = tested on: MDA-N
[6] = tested on: NCI-H522 lung
[7] = tested on: NCI/ADR-RES ovarian
[8] = tested on: OVCAR-4 ovarian
[9] = tested on: OVCAR-8 ovarian
[10] = tested on: SF-539 CNS

SMILES | TGI [1] | TGI [2] | TGI [3] | TGI [4] | TGI [5] | TGI [6] | TGI [7] | TGI [8] | TGI [9] | TGI [10] | GI50 [1] | GI50 [2] | GI50 [4] | GI50 [6] | GI50 [7] | GI50 [8] | GI50 [9] | GI50 [10]
Oc1ccc(Nc2nc(Cl)c3[nH]cnc3n2)cc1 | > 100 µM | > 100 µM | > 100 µM | > 100 µM | > 100 µM | > 100 µM | > 100 µM | > 100 µM | > 100 µM | > 100 µM | – | – | – | – | – | – | – | –
O=[N+]([O-])/C(Cl)=C(\NCCO)C(Cl)=C(Cl)Cl | 52.1 µM | > 100 µM | 76.8 µM | 11.4 µM | > 96.3 µM | 53 µM | > 77.9 µM | > 100 µM | > 92.5 µM | > 100 µM | – | – | – | – | – | – | – | –
O=C(NNC(=O)c1ccc(Cl)cc1NC(=O)C12CC3CC(CC(C3)C1)C2)c1ccc(Cl)cc1 | 62.5 µM | 69.8 µM | 35.9 µM | 58.7 µM | 55.9 µM | 36 µM | 63.1 µM | > 100 µM | > 100 µM | 46.6 µM | – | – | – | – | – | – | – | –
COC(=O)c1ccc(C)cc1C1CN=NC12Cc1cccc(C)c1C2=O (stereo not drawn) | 92.8 µM | > 100 µM | > 100 µM | 49.8 µM | 70.9 µM | 78.1 µM | 67.1 µM | > 100 µM | 47.1 µM | > 100 µM | – | – | – | – | – | – | – | –
CCOC(=O)c1c(SC(=O)c2ccc(Cl)cc2)n(-c2ccccc2)c(=S)n(-c2ccccc2)c1=O | > 100 µM | > 100 µM | > 100 µM | > 100 µM | > 100 µM | > 100 µM | > 100 µM | > 100 µM | > 100 µM | > 100 µM | – | – | – | – | – | – | – | –
O=Cc1c2c(cc3c1CC1(C3)Cc3cc4c(c(C=O)c3C1)CCC4)CCC2 | 58.4 µM | > 100 µM | > 100 µM | 55.7 µM | > 100 µM | > 100 µM | > 100 µM | 72.1 µM | > 100 µM | > 100 µM | – | – | – | – | – | – | – | –
CCN(CC)CC[n+]1ccc2c(C)c3[nH]c4ccccc4c3c(C)c2c1 | 4.33 µM and 2.1 µM and 2.27 µM | 8.97 µM and 16.4 µM and 4.14 µM | 80.5 µM and 110 µM | 3.7 µM and 0.464 µM and 0.743 µM | 1.99 µM | 1.36 µM and 2.58 µM and 1.87 µM | 48.1 µM and 125 µM | 1.2 µM and 4.27 µM and 0.483 µM | 4.97 µM and 5.17 µM and 2.25 µM | 1.66 µM and 5.78 µM and 2.12 µM | 0.245 µM and 0.0957 µM | 1.48 µM | 0.402 µM and < 0.0437 µM | 0.247 µM | 27.2 µM and 43.6 µM and 87.6 µM | 0.192 µM and 0.799 µM and 0.0865 µM | 0.392 µM and 0.59 µM and 0.195 µM | 0.921 µM
C[C@@H]([C@H]1CC[C@@]2(C)[C@@H]3CC[C@@H]4C(=CC3=CC[C@]12C)CC[C@H](N(C)C)C4(C)C)N(C)C | > 100 µM | > 100 µM | > 100 µM | > 100 µM | > 100 µM | > 100 µM | > 100 µM | > 100 µM | > 100 µM | > 100 µM | – | – | – | – | – | – | – | –
Cc1cc2ccccc2oc(=O)/c1=N\Nc1ccccc1 | > 100 µM | > 100 µM | > 100 µM | > 100 µM | > 100 µM | > 100 µM | > 100 µM | > 100 µM | > 100 µM | > 100 µM | – | – | – | – | – | – | – | –
Nc1ccnc2c1ncn2[C@H]1C[C@H](O)[C@@H](CO)O1 | > 100 µM | > 100 µM | > 100 µM | > 100 µM | > 100 µM | > 100 µM | > 100 µM | > 100 µM | > 100 µM | > 100 µM | – | – | – | – | – | – | – | –
C#CCn1c(I)cc2c(c1=O)COC(=O)[C@]2(O)CC | > 100 µM | > 100 µM | > 100 µM | > 100 µM | > 100 µM | > 100 µM | > 100 µM | > 100 µM | > 100 µM | > 100 µM | – | – | – | – | – | – | – | –
CC(C)(C)c1cc(C(C)(C)C)c(SC2OC(CO)C(O)C(O)C2O)c(O)c1O (stereo not drawn) | > 34.7 µM | > 53.3 µM | 18.8 µM | 14.5 µM | 15.8 µM | 20.9 µM | 34.3 µM | > 61.9 µM | 27.7 µM | 12.7 µM | – | – | – | – | – | – | – | –
CCOC(=O)c1cnc2n(c1=O)[C@H]1CCCC[C@@H]1N2 | > 100 µM | > 100 µM | > 100 µM | > 100 µM | > 100 µM | > 100 µM | > 100 µM | > 100 µM | > 100 µM | > 100 µM | – | – | – | – | – | – | – | –
CC(C)(C)OC(=O)NCC(c1c[nH]c2ccccc12)c1c[nH]c2ccccc12 | 44.7 µM | 26.2 µM | 53.5 µM | 31.8 µM | 35.3 µM | 39.3 µM | 51.3 µM | 26.5 µM | 34.4 µM | 35.4 µM | – | – | – | – | – | – | – | –
C[C@@H]1C[C@@H]2OC(=O)[C@]3(C)[C@H]2[C@@H](OC3(C)O)[C@]2(C)C(=O)C=C[C@@H]12 (stereo partly drawn) | 31.8 µM | 49.2 µM | 30.2 µM | 11.2 µM | 35.5 µM | 23.8 µM | > 100 µM | 35.9 µM | > 100 µM | > 100 µM | – | – | – | – | – | – | – | –
